Our source for the IC50 values is ChEMBL document CHEMBL3886773, “Immune system modulators” (2016).

Molecules are shown by their SMILES.

The assay has as its target T1, Toll-like receptor 9 (Homo sapiens, UniProt Q9NR96).
T1 sequence (Q9NR96 whole entry): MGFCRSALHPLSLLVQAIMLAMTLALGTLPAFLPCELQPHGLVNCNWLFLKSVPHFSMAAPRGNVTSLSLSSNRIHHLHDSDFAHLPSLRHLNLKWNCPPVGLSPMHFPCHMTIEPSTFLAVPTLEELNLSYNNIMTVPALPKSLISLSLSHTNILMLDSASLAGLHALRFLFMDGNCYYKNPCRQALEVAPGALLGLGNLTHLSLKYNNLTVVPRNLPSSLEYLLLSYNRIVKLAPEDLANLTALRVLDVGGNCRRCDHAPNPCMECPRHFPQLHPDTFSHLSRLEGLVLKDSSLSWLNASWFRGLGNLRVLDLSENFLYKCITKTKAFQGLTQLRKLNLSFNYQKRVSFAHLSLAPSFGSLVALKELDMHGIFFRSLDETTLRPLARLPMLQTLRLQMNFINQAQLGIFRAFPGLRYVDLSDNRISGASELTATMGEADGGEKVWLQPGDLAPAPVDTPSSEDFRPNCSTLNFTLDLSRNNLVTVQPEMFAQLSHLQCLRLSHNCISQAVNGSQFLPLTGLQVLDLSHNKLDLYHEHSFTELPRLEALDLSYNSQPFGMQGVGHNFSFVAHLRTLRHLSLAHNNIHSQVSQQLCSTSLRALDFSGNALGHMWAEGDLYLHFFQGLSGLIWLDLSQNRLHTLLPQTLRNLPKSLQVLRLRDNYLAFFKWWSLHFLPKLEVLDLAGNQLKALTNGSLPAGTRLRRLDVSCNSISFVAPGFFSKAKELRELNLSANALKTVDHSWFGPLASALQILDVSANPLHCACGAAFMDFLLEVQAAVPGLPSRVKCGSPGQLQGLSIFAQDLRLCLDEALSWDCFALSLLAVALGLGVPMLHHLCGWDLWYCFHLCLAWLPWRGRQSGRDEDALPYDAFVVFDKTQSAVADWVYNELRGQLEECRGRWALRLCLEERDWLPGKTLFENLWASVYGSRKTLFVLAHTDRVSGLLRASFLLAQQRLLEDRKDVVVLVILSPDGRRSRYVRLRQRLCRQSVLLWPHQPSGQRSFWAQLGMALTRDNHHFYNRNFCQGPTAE
In words: Antagonism Assay: Day 1: A cell suspension of HEK-Blue™-hTLR9 cells at ~450,000 cells per ml in test medium which contained 5% (v/v) heat inactivated FBS was prepared. 180 μl of cell suspension (Ë¿80,000 cells) was added per well of a flat-bottom 96-well plate and place in an incubator at 37° C. for overnight. Day 2: Test compounds were serially diluted in test medium, generally starting at 10 μM, and diluting by 3 fold in a 96 well master plate. 20 μl of diluted test compound was transferred using a 12 channel multi-channel pipet to the cell plate and incubated at 37° C. for 1 hour. Then 20 μl of an hTLR9 agonist (such as ODN 2006, 1 μM) was added to each well and the plate incubated at 37° C. overnight. Day 3: Invivogen's QUANTI-Blue™ was prepared following the manufacturer's instructions. […] of resuspended QUANTI-Blue™ was added per well of a flat bottom 96-well plate. 20 μl per well of induced HEK-Blue™-hTLR9 cells supernatant was then added to the plate and the plate was incubated at 37° C. for 1-3 h. SEAP levels were determined using a spectrophotometer at 620 nm.

The molecule `CN1CCN(c2cnc3c(NCCSC(=N)N)nc(-c4ccccc4)nc3n2)CC1` had an IC50 above 10000 nM.

Molecule `N#Cc1ccc(-c2nc3c(NCCN4CCOCC4)nc(-c4ccccc4)nc3n(CCN3CCOCC3)c2=O)cc1` yielded an IC50 of 487 nM.

On to `CN1CCN(c2nc3nc(-c4ccc(C(C)(C)C)cc4)nc(NCCN4CCOCC4)c3nc2NCCN2CCOCC2)CC1`, for which the half-maximal inhibitory concentration (IC50) stood at 273 nM.

`Cc1nc2c(NCCN3CCOCC3)nc(-c3ccccc3)nc2n(CCN2CCOCC2)c1=O` came in with an IC50 of 2480 nM.

On to `O=c1c(C(F)(F)F)nc2c(NCCN3CCOCC3)nc(-c3ccccc3)nc2n1CCN1CCOCC1`, for which the IC50 came to 3820 nM.

In the case of `CN1CCN(c2nc3nc(-c4ccccc4)nc(NCCN4CCOCC4)c3nc2NCCN2CCOCC2)CC1`, the 50% inhibitory concentration (IC50) was determined as 317 nM.

`CN1CCN(c2cnc3c(NCCc4ccccn4)nc(-c4ccccc4)nc3n2)CC1` returned an IC50 of 2180 nM.

Regarding `Cc1cnc(CNc2nc(-c3ccccc3)nc3nc(N4CCN(C)CC4)cnc23)cn1`, the IC50 worked out at 2490 nM. This IC50 and that of the molecule before are within 1.5-fold of each other.

Turning to `CN1CCN(c2cnc3c(NCCCn4cncn4)nc(-c4ccccc4)nc3n2)CC1`, the concentration for half-maximal inhibition (IC50) turned out to be 2950 nM.

On to `O=c1c(-c2cc(F)cc(F)c2)nc2c(NCCN3CCOCC3)nc(-c3ccccc3)nc2n1CCN1CCOCC1`, for which the IC50 amounted to 901 nM.

In turn, `CN1CCN(c2nc3nc(-c4ccccc4)nc(NCCN4CCOCC4)c3nc2Cl)CC1` had a concentration for half-maximal inhibition (IC50) of 62 nM.

`O=c1c(-c2ccccc2)nc2c(NCCN3CCOCC3)nc(-c3ccccc3)nc2n1CCN1CCOCC1`: the 50% inhibitory concentration (IC50) worked out at 137 nM.

In turn, `CN1CCN(c2ccc(-c3nc(NCCN4CCOCC4)c4nccnc4n3)cc2)CC1` returned an IC50 of 285 nM.

The molecule `CN(C)CCN(C)c1nc(-c2ccccc2)nc2nc(N3CCN(C)CC3)cnc12` returned a 50% inhibitory concentration (IC50) of 112 nM.

As for `CN1CCN(CCNc2nc(-c3ccccc3)nc3nc(N4CCN(C)CC4)cnc23)CC1`, the IC50 came out at 113 nM. The IC50 values of the last two molecules are within 1.5-fold of each other.

For `CN1CCN(c2cnc3c(NCCCNc4nc(N)nc(N)n4)nc(-c4ccccc4)nc3n2)CC1`, the IC50 stood at 198 nM.

On to `CN1CCN(CCNc2nc(-c3ccccc3)nc3c2nc(-c2ccccc2)c(=O)n3CCN2CCN(C)CC2)CC1`, for which the IC50 was found to be 124 nM.

Regarding `CN1CCN(c2cnc3c(NCCc4ccncc4)nc(-c4ccccc4)nc3n2)CC1`, the concentration for half-maximal inhibition (IC50) amounted to 991 nM.
